In one assay the target is T1, human P2X2/3 receptor (Homo sapiens, UniProt P56373+Q9UBL9).
T1 construct: expressed in transfected cells; host or cells: CHO-K1
T1 sequence (Q9UBL9 1-471): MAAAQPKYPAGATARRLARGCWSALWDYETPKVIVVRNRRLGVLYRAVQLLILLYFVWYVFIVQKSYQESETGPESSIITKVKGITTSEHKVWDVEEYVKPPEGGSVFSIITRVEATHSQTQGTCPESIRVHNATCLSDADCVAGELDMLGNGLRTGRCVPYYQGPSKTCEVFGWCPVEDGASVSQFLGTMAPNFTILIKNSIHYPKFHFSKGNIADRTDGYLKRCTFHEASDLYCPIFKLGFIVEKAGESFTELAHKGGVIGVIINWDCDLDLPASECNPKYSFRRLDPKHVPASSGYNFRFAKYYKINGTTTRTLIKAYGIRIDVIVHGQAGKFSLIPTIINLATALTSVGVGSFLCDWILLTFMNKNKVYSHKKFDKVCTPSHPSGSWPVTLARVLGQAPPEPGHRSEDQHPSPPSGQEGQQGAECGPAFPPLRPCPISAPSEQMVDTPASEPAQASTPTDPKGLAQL
T1 sequence (P56373 1-397): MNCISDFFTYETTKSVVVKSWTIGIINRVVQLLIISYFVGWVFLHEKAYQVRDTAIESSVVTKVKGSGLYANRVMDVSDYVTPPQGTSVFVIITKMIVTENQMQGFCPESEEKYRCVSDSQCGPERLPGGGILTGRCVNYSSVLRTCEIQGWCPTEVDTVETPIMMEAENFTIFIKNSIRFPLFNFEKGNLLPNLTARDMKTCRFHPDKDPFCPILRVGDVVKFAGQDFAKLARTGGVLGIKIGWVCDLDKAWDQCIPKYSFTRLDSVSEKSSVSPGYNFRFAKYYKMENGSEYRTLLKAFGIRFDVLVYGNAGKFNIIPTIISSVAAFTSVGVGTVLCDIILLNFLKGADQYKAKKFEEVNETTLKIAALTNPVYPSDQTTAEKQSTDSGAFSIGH
The assay can be described thus: P2X2/3 FLIPR (Fluorometric Imaging Plate Reader) assay. Type of assay: cell-based. The note with it: CHO-K1 cells transfected with human P2X2/3; agonist α,β-meATP 5 μM; FLIPR calcium fluorescence; read-out: pKi P2X2/3 (converted). As to the method: (§1) CHO-K1 cells were transfected with cloned rat P2X3 or human P2X2/3 receptor subunits and passaged in flasks. 18-24 hours before the FLIPR experiment, cells were released from their flasks, centrifuged, and resuspended in nutrient medium at 2.5×10^5 cells/ml. The cells were aliquoted into black-walled 96-well plates at a density of 50,000 cells/well and incubated overnight in 5% CO2 at 37° C. On the day of the experiment, cells were washed in FLIPR buffer (calcium- and magnesium-free Hank's balanced salt solution, 10 mM HEPES, 2 mM CaCl2, 2.5 mM probenecid; FB). Each well received 100 μl FB and 100 μl of the fluorescent dye Fluo-3 AM [2 μM final conc.]. After a 1 hour dye loading incubation at 37° C., the cells were washed 4 times with FB, and a final 75 μl/well FB was left in each well.
(§2) Test compounds (dissolved in DMSO at 10 mM and serially diluted with FB) or vehicle were added to each well (25 μl of a 4× solution) and allowed to equilibrate for 20 minutes at room temperature. The plates were then placed in the FLIPR and a baseline fluorescence measurement (excitation at 488 nm and emission at 510-570 nm) was obtained for 10 seconds before a 100 μl/well agonist or vehicle addition. The agonist was a 2× solution of α,β-meATP producing a final concentration of 1 μM (P2X3) or 5 μM (P2X2/3). Fluorescence was measured for an additional 2 minutes at 1 second intervals after agonist addition. A final addition of ionomycin (5 μM, final concentration) was made to each well of the FLIPR test plate to establish cell viability and maximum fluorescence of dye-bound cytosolic calcium. Peak fluorescence in response to the addition of α,β-meATP (in the absence and presence of test compounds) was measured and inhibition curves generated using nonlinear regression. PPADS, a standard P2X antagonist, was used as a positive control.

Another assay deals with T2, rat P2X3 receptor (Rattus norvegicus, UniProt P49654).
T2 construct: expressed in transfected cells; host or cells: CHO-K1
T2 sequence (P49654 1-397): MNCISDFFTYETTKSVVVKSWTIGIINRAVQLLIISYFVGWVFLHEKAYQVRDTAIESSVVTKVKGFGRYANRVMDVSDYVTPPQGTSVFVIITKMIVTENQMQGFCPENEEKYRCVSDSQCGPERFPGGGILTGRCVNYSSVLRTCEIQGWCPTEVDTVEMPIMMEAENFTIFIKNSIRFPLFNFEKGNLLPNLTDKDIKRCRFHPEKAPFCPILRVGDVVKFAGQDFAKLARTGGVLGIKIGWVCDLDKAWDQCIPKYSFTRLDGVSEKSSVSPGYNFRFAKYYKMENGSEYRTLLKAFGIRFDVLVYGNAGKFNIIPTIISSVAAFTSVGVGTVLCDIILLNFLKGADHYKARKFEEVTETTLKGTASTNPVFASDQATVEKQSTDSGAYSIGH
In words: P2X3 FLIPR (Fluorometric Imaging Plate Reader) assay. Type of assay: cell-based. The note with it: CHO-K1 cells transfected with rat P2X3; agonist α,β-meATP 1 μM; FLIPR calcium fluorescence; read-out: pKi P2X3 (converted). As to the method: as §1, §2

With `Cc1ccc(-c2cc(C(=O)NCc3ccc(C)nn3)cc(N3C(=O)OCC3(C)C)c2)nc1` [Compound 31, 3-(4,4-Dimethyl-2-oxo-oxazolidin-3-yl)-N-(6-methyl-pyridazin-3-ylmethyl)-5-(5-methyl-pyridin-2-yl)-benzamide], the Ki at human P2X2/3 receptor is 85.1 nM; at rat P2X3 receptor, 5.62 nM.

Consider `Cc1ccc(-c2cc(C(=O)NC(C)c3cnccn3)cc(N3C(=O)CCC3C)c2)nc1` (stereo not shown) [Compound 27, 3-(2-Methyl-5-oxo-pyrrolidin-1-yl)-5-(5-methyl-pyridin-2-yl)-N-(1-pyrazin-2-yl-ethyl)-benzamide], for which the Ki on human P2X2/3 receptor is 7760 nM; at rat P2X3 receptor it was 38.9 nM.

In the case of `Cc1ccc(-c2cc(C(=O)NCc3cnc(C)cn3)cc(-n3c(=O)[nH]c4cncnc43)c2)nc1` [Compound 30, N-(5-Methyl-pyrazin-2-ylmethyl)-3-(5-methyl-pyridin-2-yl)-5-(8-oxo-7,8-dihydro-purin-9-yl)-benzamide], the figures for the Ki on human P2X2/3 receptor and on rat P2X3 receptor were 35.5 nM and 3.16 nM, respectively.

On to `Cc1ccc(-c2cc(C(=O)NCc3cnc(C)cn3)cc(N3C(=O)CCC3C)c2)nc1` (stereo not shown) [Compound 28, 3-(2-Methyl-5-oxo-pyrrolidin-1-yl)-N-(5-methyl-pyrazin-2-ylmethyl)-5-(5-methyl-pyridin-2-yl)-benzamide], for which the Ki was 2040 nM on human P2X2/3 receptor and 30.2 nM at rat P2X3 receptor.

Consider `Cc1ccc(-c2cc(C(=O)NC(C)c3cnccn3)cc(N3C(=O)OC[C@H]3C(C)C)c2)nc1` (stereo partly drawn) [Compound 10, 3-((R)-4-Isopropyl-2-oxo-oxazolidin-3-yl)-5-(5-methyl-pyridin-2-yl)-N-(1-pyrazin-2-yl-ethyl)-benzamide], for which the Ki at human P2X2/3 receptor was 26.3 nM; at rat P2X3 receptor it was 3.55 nM.

As to `Cc1ccc(-c2cc(C(=O)NCc3cnc(C)cn3)cc(N3C(=O)OC[C@H]3C(C)C)c2)cc1` [Compound 40, 5-((R)-4-Isopropyl-2-oxo-oxazolidin-3-yl)-4′-methyl-biphenyl-3-carboxylic acid (5-methyl-pyrazin-2-ylmethyl)-amide], the Ki is 38 nM at human P2X2/3 receptor and 12.3 nM on rat P2X3 receptor.

As for `Cc1ccc(-c2cc(C(=O)NCc3cnc(C)cn3)cc(N3C(=O)OC[C@H]3C(C)C)c2)nc1` [Compound 11, 3-((R)-4-Isopropyl-2-oxo-oxazolidin-3-yl)-N-(5-methyl-pyrazin-2-ylmethyl)-5-(5-methyl-pyridin-2-yl)-benzamide], the Ki at human P2X2/3 receptor is 20.4 nM; at rat P2X3 receptor, 3.98 nM.

In the case of `Cc1ccc(-c2cc(C(=O)NC(C)c3cnccn3)cc(-n3c(=O)[nH]c4ccccc43)c2)nc1` (stereo not shown) [Compound 4, 3-(5-Methyl-pyridin-2-yl)-5-(2-oxo-2,3-dihydro-benzoimidazol-1-yl)-N-(1-pyrazin-2-yl-ethyl)-benzamide], the results for the Ki at human P2X2/3 receptor and on rat P2X3 receptor were 191 nM and 4.07 nM, respectively.

On to `Cc1ccc(-c2cc(C(=O)N[C@@H](C)CO)cc(N3C(=O)OC[C@H]3C(C)C)c2)nc1` [Compound 9, N-((S)-2-Hydroxy-1-methyl-ethyl)-3-((R)-4-isopropyl-2-oxo-oxazolidin-3-yl)-5-(5-methyl-pyridin-2-yl)-benzamide], for which the Ki is 195 nM on human P2X2/3 receptor and 2.24 nM at rat P2X3 receptor.

Regarding `Cc1ccc(-c2cc(C(=O)NCc3cnc(C)cn3)cc(N3C(=O)Cc4ccccc43)c2)nc1` [Compound 5, N-(5-Methyl-pyrazin-2-ylmethyl)-3-(5-methyl-pyridin-2-yl)-5-(2-oxo-2,3-dihydro-indol-1-yl)-benzamide], the Ki on human P2X2/3 receptor was 89.1 nM; on rat P2X3 receptor, 8.91 nM.

In the case of `COC[C@@H](C)NC(=O)c1cc(-c2ccc(C)cn2)cc(N2C(=O)OC[C@H]2C(C)C)c1` [Compound 7, 3-((R)-4-Isopropyl-2-oxo-oxazolidin-3-yl)-N-((R)-2-methoxy-1-methyl-ethyl)-5-(5-methyl-pyridin-2-yl)-benzamide], the values for the Ki on human P2X2/3 receptor and on rat P2X3 receptor were 562 nM and 5.25 nM, respectively.

Turning to `Cc1ccc(-c2cc(C(=O)N[C@@H](C)CO)cc(-n3c(=O)oc4ccccc43)c2)nc1` [Compound 3, N-((S)-2-Hydroxy-l-methyl-ethyl)-3-(5-methyl-pyridin-2-yl)-5-(2-oxo-benzooxazol-3-yl)-benzamide], the Ki on human P2X2/3 receptor was 234 nM; at rat P2X3 receptor, 3.31 nM.

`Cc1ccc(-c2cc(C(=O)NCc3cnc(C)cn3)cc(-n3c(=O)oc4ccccc43)c2)nc1` [Compound 1, N-(5-Methyl-pyrazin-2-ylmethyl)-3-(5-methyl-pyridin-2-yl)-5-(2-oxo-benzooxazol-3-yl)-benzamide]: the Ki was 28.8 nM on human P2X2/3 receptor and 7.94 nM at rat P2X3 receptor.

As to `Cc1ccc(-c2cc(C(=O)NCc3cncnc3)cc(-n3c(=O)oc4ccccc43)c2)nc1` [Compound 12, 3-(5-Methyl-pyridin-2-yl)-5-(2-oxo-benzooxazol-3-yl)-N-pyrimidin-5-ylmethyl-benzamide], the Ki at human P2X2/3 receptor was 141 nM; on rat P2X3 receptor, 6.03 nM.

For `Cc1ccc(-c2cc(C(=O)NC3CC3)cc(N3C(=O)OC[C@H]3C(C)C)c2)cc1` [Compound 41, 5-((R)-4-Isopropyl-2-oxo-oxazolidin-3-yl)-4′-methyl-biphenyl-3-carboxylic acid cyclopropylamide], the values for the Ki at human P2X2/3 receptor and at rat P2X3 receptor were 83.2 nM and 3.98 nM, respectively.

In the case of `CCC1COC(=O)N1c1cc(C(=O)NCc2cnc(C)cn2)cc(-c2ccc(C)cn2)c1` (stereo not shown) [Compound 19, 3-(4-Ethyl-2-oxo-oxazolidin-3-yl)-N-(5-methyl-pyrazin-2-ylmethyl)-5-(5-methyl-pyridin-2-yl)-benzamide], the results for the Ki on human P2X2/3 receptor and at rat P2X3 receptor were 66.1 nM and 4.27 nM, respectively.

For the compound `Cc1ccc(-c2cc(C(=O)NC(C)c3cnccn3)cc(N3C(=O)OCC3(C)C)c2)nc1` (stereo not shown) [Compound 20, 3-(4,4-Dimethyl-2-oxo-oxazolidin-3-yl)-5-(5-methyl-pyridin-2-yl)-N-(1-pyrazin-2-yl-ethyl)-benzamide], the figures for the Ki at human P2X2/3 receptor and on rat P2X3 receptor were 123 nM and 6.31 nM, respectively.

As for `Cc1ccc(-c2cc(C(=O)NCc3cnc(C)nc3)cc(-n3c(=O)oc4ccccc43)c2)nc1` [Compound 33, 3-(5-Methyl-pyridin-2-yl)-N-(2-methyl-pyrimidin-5-ylmethyl)-5-(2-oxo-benzooxazol-3-yl)-benzamide], the Ki at human P2X2/3 receptor was 13.8 nM; on rat P2X3 receptor, 6.17 nM.

Consider `Cc1ccc(-c2cc(C(=O)NC3CC3)cc(N3C(=O)OC[C@H]3C(C)C)c2)c(F)c1` [Compound 49, 2′-Fluoro-5-((R)-4-isopropyl-2-oxo-oxazolidin-3-yl)-4′-methyl-biphenyl-3-carboxylic acid cyclopropylamide], for which the Ki on human P2X2/3 receptor was 123 nM; at rat P2X3 receptor, 8.91 nM.

Regarding `Cc1ccc(-c2cc(C(=O)NC(C)c3cnccn3)cc(N3C(=O)OC[C@@H]3C(C)C)c2)cc1` (stereo partly drawn) [Compound 45, 5-((S)-4-Isopropyl-2-oxo-oxazolidin-3-yl)-4′-methyl-biphenyl-3-carboxylic acid (1-pyrazin-2-yl-ethyl)-amide], the results for the Ki at human P2X2/3 receptor and at rat P2X3 receptor were 7590 nM and 263 nM, respectively.

The record behind these values is patent US8093275B2, “Oxazolone and pyrrolidinone-substituted pryidine amides as P2X3 and P2X2/3 antagonists” (Roche Palo Alto LLC, priority 2009, dated 2012).
